Assay results from ChEMBL document CHEMBL1149439, “A concise asymmetric route for the synthesis of a novel class of glucocorticoid mimetics containing a trifluoromethyl-substituted alcohol” (Bioorg Med Chem Lett, 2006).

Target: T1, Glucocorticoid receptor (Homo sapiens, UniProt P04150)
T1 sequence (P04150 whole entry): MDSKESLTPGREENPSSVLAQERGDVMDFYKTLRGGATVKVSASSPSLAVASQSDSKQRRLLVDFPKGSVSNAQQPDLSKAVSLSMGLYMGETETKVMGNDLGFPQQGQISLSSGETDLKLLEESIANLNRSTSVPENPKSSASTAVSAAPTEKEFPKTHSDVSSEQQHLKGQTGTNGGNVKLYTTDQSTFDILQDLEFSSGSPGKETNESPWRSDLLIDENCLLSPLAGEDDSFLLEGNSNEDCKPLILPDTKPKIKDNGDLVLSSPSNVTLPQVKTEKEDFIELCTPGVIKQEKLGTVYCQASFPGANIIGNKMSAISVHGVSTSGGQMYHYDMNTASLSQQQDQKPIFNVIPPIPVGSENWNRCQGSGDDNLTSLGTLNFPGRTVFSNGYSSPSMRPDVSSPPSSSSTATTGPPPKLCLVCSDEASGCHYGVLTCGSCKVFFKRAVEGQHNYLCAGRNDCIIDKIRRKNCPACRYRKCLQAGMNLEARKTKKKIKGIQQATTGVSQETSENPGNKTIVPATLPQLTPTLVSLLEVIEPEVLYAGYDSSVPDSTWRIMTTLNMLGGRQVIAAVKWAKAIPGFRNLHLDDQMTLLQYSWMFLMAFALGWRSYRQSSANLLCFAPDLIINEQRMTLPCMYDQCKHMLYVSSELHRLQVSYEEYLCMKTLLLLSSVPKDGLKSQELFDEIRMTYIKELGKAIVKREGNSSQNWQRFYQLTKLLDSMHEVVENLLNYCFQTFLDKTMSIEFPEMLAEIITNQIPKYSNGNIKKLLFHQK
Assay: Binding affinity to glucocorticoid receptor by Fluorescence polarization

Row | SMILES | IC50
1 | COc1ccc(F)cc1C(C)(C)C[C@](O)(Cc1ccc(Cl)cc1)C(F)(F)F | 2 µM
2 | COc1ccc(F)cc1C(C)(C)C[C@@](O)(Cc1ccc(Cl)cc1)C(F)(F)F | 0.099 µM
